Assay results reported in patent US12077503B2, “Substituted cyclic amides and their use as herbicides” (FMC CORPORATION, priority 2015, dated 2024).

Assays:
Format in all cases: in vivo
[1] = test system: barnyardgrass (Echinochloa crus-galli); experiment: Test G Pre-Emergence Protocol; settings: Echinochloa crus-galli, pre-emergence, 312 h, evaluated after 13 days; for pest or weed control at 15.625 g/ha: 15.625 g ai/ha, read-out: Barnyard grass damage rating (100=total damage to plant; 0=no damage to plant); for pest or weed control at 62.5 g/ha: 62.5 g ai/ha, 100=total damage to plant, 0=no damage to plant, read-out: plant damage rating, Barnyardgrass; for pest or weed control at 250 g/ha: 250 g ai/ha, read-out: Barnyardgrass damage rating (100=total damage to plant; 0=no damage to plant)
How it was run: (§1)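 One day after sowing, pots are treated with a spray of test compound formulated in acetone/water 50:50 plus 0.5% Tween 20, giving 15.625, 62.5 or 250 g/ha. Evaluation on a 0–100 damage scale follows 13 days of glasshouse growth.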

corn (Zea mays) [2] = experiment: Test G Pre-Emergence Protocol; settings: Zea mays, pre-emergence, 312 h, evaluated after 13 days; for plant injury at 15.625 g/ha: 15.625 g ai/ha; for plant injury at 15.625 g/ha / plant injury at 250 g/ha: read-out: Corn damage rating (100=total damage to plant; 0=no damage to plant); for plant injury at 62.5 g/ha: 62.5 g ai/ha, 100=total damage to plant, 0=no damage to plant, read-out: plant damage rating, Corn; for plant injury at 250 g/ha: 250 g ai/ha
How it was run: as §1

[3] = test system: giant foxtail (Setaria faberi); experiment: Test G Pre-Emergence Protocol; settings: Setaria faberi, pre-emergence, 312 h, evaluated after 13 days; for pest or weed control at 15.625 g/ha: 15.625 g ai/ha; for pest or weed control at 15.625 g/ha / pest or weed control at 250 g/ha: read-out: Foxtail, Giant damage rating (100=total damage to plant; 0=no damage to plant); for pest or weed control at 62.5 g/ha: 62.5 g ai/ha, 100=total damage to plant, 0=no damage to plant, read-out: plant damage rating, Foxtail, Giant; for pest or weed control at 250 g/ha: 250 g ai/ha
How it was run: as §1

[4] = test system: ivy-leaved morning glory (Ipomoea hederacea); experiment: Test G Pre-Emergence Protocol; settings: Ipomoea, pre-emergence, 312 h, evaluated after 13 days; for pest or weed control at 15.625 g/ha: 15.625 g ai/ha, read-out: Morning-glory, Ivy-leaved damage rating (100=total damage to plant; 0=no damage to plant); for pest or weed control at 62.5 g/ha: 62.5 g ai/ha, 100=total damage to plant, 0=no damage to plant, read-out: plant damage rating, Morningglory, Ivy-leaved; for pest or weed control at 250 g/ha: 250 g ai/ha, read-out: Morningglory, Ivy-leaved damage rating (100=total damage to plant; 0=no damage to plant)
How it was run: as §1

[5] = test system: redroot pigweed (Amaranthus retroflexus); experiment: Test G Pre-Emergence Protocol; settings: Amaranthus retroflexus, pre-emergence, 312 h, evaluated after 13 days; for pest or weed control at 15.625 g/ha: 15.625 g ai/ha; for pest or weed control at 15.625 g/ha / pest or weed control at 250 g/ha: read-out: Pigweed, Redroot damage rating (100=total damage to plant; 0=no damage to plant); for pest or weed control at 62.5 g/ha: 62.5 g ai/ha, 100=total damage to plant, 0=no damage to plant, read-out: plant damage rating, Pigweed, Redroot; for pest or weed control at 250 g/ha: 250 g ai/ha
How it was run: as §1

[6] = test system: velvetleaf (Abutilon theophrasti); experiment: Test G Pre-Emergence Protocol; settings: Abutilon theophrasti, pre-emergence, 312 h, evaluated after 13 days; for pest or weed control at 15.625 g/ha: 15.625 g ai/ha; for pest or weed control at 15.625 g/ha / pest or weed control at 250 g/ha: read-out: Velvetleaf damage rating (100=total damage to plant; 0=no damage to plant); for pest or weed control at 62.5 g/ha: 62.5 g ai/ha, 100=total damage to plant, 0=no damage to plant, read-out: plant damage rating, Velvetleaf; for pest or weed control at 250 g/ha: 250 g ai/ha
How it was run: as §1

[7] = test system: barnyardgrass (Echinochloa crus-galli); experiment: Test G Post-Emergence Protocol; settings: Echinochloa crus-galli, post-emergence, 312 h; for pest or weed control at 15.625 g/ha: 15.625 g ai/ha, evaluated after 13 days (100=total damage to plant; 0=no damage to plant), read-out: Barnyardgrass damage rating; for pest or weed control at 62.5 g/ha: 62.5 g ai/ha, read-out: Barnyardgrass damage rating (100=total damage to plant; 0=no damage to plant); for pest or weed control at 62.5 g/ha / pest or weed control at 250 g/ha: evaluated after 13 days; for pest or weed control at 250 g/ha: 250 g ai/ha, read-out: damage to plant, Barnyardgrass (100=total damage to plant; 0=no damage to plant)
How it was run: (§2)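 Pot-grown seedlings, 8 days old, raised in a glasshouse at 24/16 °C day/night with 14 h light and 65% humidity, were sprayed post-emergence with test compound in acetone/water (50:50) plus 0.5% Tween 20 at 15.625, 62.5 or 250 g/ha. Damage was scored visually 13 days later on a 0–100 scale (100 = total damage).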

corn (Zea mays) [8] = experiment: Test G Post-Emergence Protocol; settings: Zea mays, post-emergence, 312 h; for plant injury at 15.625 g/ha: 15.625 g ai/ha, evaluated after 13 days (100=total damage to plant; 0=no damage to plant), read-out: Corn damage rating; for plant injury at 62.5 g/ha: 62.5 g ai/ha, read-out: Corn damage rating (100=total damage to plant; 0=no damage to plant); for plant injury at 62.5 g/ha / plant injury at 250 g/ha: evaluated after 13 days; for plant injury at 250 g/ha: 250 g ai/ha, read-out: damage to plant, Corn (100=total damage to plant; 0=no damage to plant)
How it was run: as §2

[9] = test system: giant foxtail (Setaria faberi); experiment: Test G Post-Emergence Protocol; settings: Setaria faberi, post-emergence, 312 h; for pest or weed control at 15.625 g/ha: 15.625 g ai/ha, evaluated after 13 days (100=total damage to plant; 0=no damage to plant), read-out: Foxtail, Giant damage rating; for pest or weed control at 62.5 g/ha: 62.5 g ai/ha, read-out: Foxtail, Giant damage rating (100=total damage to plant; 0=no damage to plant); for pest or weed control at 62.5 g/ha / pest or weed control at 250 g/ha: evaluated after 13 days; for pest or weed control at 250 g/ha: 250 g ai/ha, read-out: damage to plant, Foxtail, Giant (100=total damage to plant; 0=no damage to plant)
How it was run: as §2

[10] = test system: ivy-leaved morning glory (Ipomoea hederacea); experiment: Test G Post-Emergence Protocol; settings: Ipomoea, post-emergence, 312 h; for pest or weed control at 15.625 g/ha: 15.625 g ai/ha, evaluated after 13 days (100=total damage to plant; 0=no damage to plant), read-out: Morningglory, Ivy-leaved damage rating; for pest or weed control at 62.5 g/ha: 62.5 g ai/ha, read-out: Morningglory, Ivy-leaved damage rating (100=total damage to plant; 0=no damage to plant); for pest or weed control at 62.5 g/ha / pest or weed control at 250 g/ha: evaluated after 13 days; for pest or weed control at 250 g/ha: 250 g ai/ha, read-out: damage to plant, Morningglory, Ivy-leaved (100=total damage to plant; 0=no damage to plant)
How it was run: as §2

[11] = test system: redroot pigweed (Amaranthus retroflexus); experiment: Test G Post-Emergence Protocol; settings: Amaranthus retroflexus, post-emergence, 312 h; for pest or weed control at 15.625 g/ha: 15.625 g ai/ha, evaluated after 13 days (100=total damage to plant; 0=no damage to plant), read-out: Pigweed, Redroot damage rating; for pest or weed control at 62.5 g/ha: 62.5 g ai/ha, read-out: Pigweed, Redroot damage rating (100=total damage to plant; 0=no damage to plant); for pest or weed control at 62.5 g/ha / pest or weed control at 250 g/ha: evaluated after 13 days; for pest or weed control at 250 g/ha: 250 g ai/ha, read-out: damage to plant, Pigweed, Redroot (100=total damage to plant; 0=no damage to plant)
How it was run: as §2

[12] = test system: velvetleaf (Abutilon theophrasti); experiment: Test G Post-Emergence Protocol; settings: Abutilon theophrasti, post-emergence, 312 h; for pest or weed control at 15.625 g/ha: 15.625 g ai/ha, evaluated after 13 days (100=total damage to plant; 0=no damage to plant), read-out: Velvetleaf damage rating; for pest or weed control at 62.5 g/ha: 62.5 g ai/ha, read-out: Velvetleaf damage rating (100=total damage to plant; 0=no damage to plant); for pest or weed control at 62.5 g/ha / pest or weed control at 250 g/ha: evaluated after 13 days; for pest or weed control at 250 g/ha: 250 g ai/ha, read-out: damage to plant, Velvetleaf (100=total damage to plant; 0=no damage to plant)
How it was run: as §2

CN1C[C@@H](c2ccc(C(F)(F)F)cc2)[C@H](C(=O)Nc2cccc(C(F)(F)F)n2)C1=O (racemic) [Compound 1563]
0%: pest or weed control at 15.625 g/ha [1] | pest or weed control at 62.5 g/ha [1] | pest or weed control at 250 g/ha [1] | plant injury at 15.625 g/ha (corn (Zea mays) [2]) | plant injury at 62.5 g/ha (corn (Zea mays) [2]) | plant injury at 250 g/ha (corn (Zea mays) [2]) | pest or weed control at 15.625 g/ha [3] | pest or weed control at 62.5 g/ha [3] | pest or weed control at 250 g/ha [3] | pest or weed control at 15.625 g/ha [4] | pest or weed control at 62.5 g/ha [4] | pest or weed control at 250 g/ha [4] | pest or weed control at 15.625 g/ha [5] | pest or weed control at 62.5 g/ha [5] | pest or weed control at 250 g/ha [5] | pest or weed control at 15.625 g/ha [6] | pest or weed control at 62.5 g/ha [6] | pest or weed control at 250 g/ha [6] | pest or weed control at 15.625 g/ha [7] | pest or weed control at 62.5 g/ha [7] | pest or weed control at 250 g/ha [7] | plant injury at 15.625 g/ha (corn (Zea mays) [8]) | plant injury at 62.5 g/ha (corn (Zea mays) [8]) | plant injury at 250 g/ha (corn (Zea mays) [8]) | pest or weed control at 15.625 g/ha [9] | pest or weed control at 62.5 g/ha [9] | pest or weed control at 250 g/ha [9] | pest or weed control at 15.625 g/ha [10] | pest or weed control at 62.5 g/ha [10] | pest or weed control at 250 g/ha [10] | pest or weed control at 15.625 g/ha [11] | pest or weed control at 62.5 g/ha [11] | pest or weed control at 250 g/ha [11] | pest or weed control at 15.625 g/ha [12] | pest or weed control at 62.5 g/ha [12] | pest or weed control at 250 g/ha [12]

CN1C[C@@H](c2ccc(C(F)(F)F)cc2)[C@H](C(=O)Nc2ncccn2)C1=O (racemic) [Compound 1564]
20%: pest or weed control at 250 g/ha [7]
10%: plant injury at 250 g/ha (corn (Zea mays) [2]) | plant injury at 250 g/ha (corn (Zea mays) [8]) | pest or weed control at 250 g/ha [9] | pest or weed control at 250 g/ha [11]
0%: pest or weed control at 15.625 g/ha [1] | pest or weed control at 62.5 g/ha [1] | pest or weed control at 250 g/ha [1] | plant injury at 15.625 g/ha (corn (Zea mays) [2]) | plant injury at 62.5 g/ha (corn (Zea mays) [2]) | pest or weed control at 15.625 g/ha [3] | pest or weed control at 62.5 g/ha [3] | pest or weed control at 250 g/ha [3] | pest or weed control at 15.625 g/ha [4] | pest or weed control at 62.5 g/ha [4] | pest or weed control at 250 g/ha [4] | pest or weed control at 15.625 g/ha [5] | pest or weed control at 62.5 g/ha [5] | pest or weed control at 250 g/ha [5] | pest or weed control at 15.625 g/ha [6] | pest or weed control at 62.5 g/ha [6] | pest or weed control at 250 g/ha [6] | pest or weed control at 15.625 g/ha [7] | pest or weed control at 62.5 g/ha [7] | plant injury at 15.625 g/ha (corn (Zea mays) [8]) | plant injury at 62.5 g/ha (corn (Zea mays) [8]) | pest or weed control at 15.625 g/ha [9] | pest or weed control at 62.5 g/ha [9] | pest or weed control at 15.625 g/ha [10] | pest or weed control at 62.5 g/ha [10] | pest or weed control at 250 g/ha [10] | pest or weed control at 15.625 g/ha [11] | pest or weed control at 62.5 g/ha [11] | pest or weed control at 15.625 g/ha [12] | pest or weed control at 62.5 g/ha [12] | pest or weed control at 250 g/ha [12]
